Reference: US8853389B2, “Process for refining cefmetazole sodium” (Hainan Lingkang Pharmaceutical Co., Ltd., priority 2011, dated 2014)

How the values were obtained:
Proteus mirabilis = conditions: cited from earlier work
Klebsiella pneumoniae = conditions: cited from earlier work
Enterobacter = conditions: cited from earlier work
Shigella = conditions: cited from earlier work
Staphylococcus aureus = conditions: cited from earlier work
Pseudomonas = conditions: cited from earlier work
meningococcus = conditions: cited from earlier work
pneumococcus = conditions: cited from earlier work
Bacteroides fragilis = conditions: cited from earlier work
[1] = system: methicillin-resistant Staphylococcus aureus; conditions: cited from earlier work
Salmonella = conditions: cited from earlier work
[2] = system: catarrhal Brenham bacteria; conditions: cited from earlier work
[3] = system: group A hemolytic streptococcus; conditions: cited from earlier work
[4] = appearance of aqueous solution of refined material; type: physicochemical; conditions: solution of about 0.1 g/mL in water
solubility in solvents = type: physicochemical
Excerpt: Since the solubility of Cefmetazole sodium is high in water but very low in ethanol and even lower in acetone, a mixture of water and ethanol or a mixture of water and acetone is chosen as the solvent to recrystallize Cefmetazole sodium.

[5] = system: broad-spectrum β-lactamase generated by negative bacilli; conditions: cited from earlier work
Escherichia coli = conditions: cited from earlier work

**Q.** Which results are given for `CO[C@]1(NC(=O)CSCC#N)C(=O)N2C(C(=O)[O-])=C(CSc3nnnn3C)CS[C@H]21.[Na+]` [Cefmetazole sodium]?
**A.** antibacterial activity (Proteus mirabilis): relatively good activity; antibacterial activity (Klebsiella pneumoniae): relatively good activity; sensitivity (Enterobacter): low sensitivity or resistance; antibacterial activity (Shigella): relatively good activity; sensitivity (Staphylococcus aureus): high sensitivity; sensitivity (Pseudomonas): low sensitivity or resistance; sensitivity (meningococcus): low sensitivity or resistance; sensitivity (pneumococcus): low sensitivity or resistance; antibacterial activity (Bacteroides fragilis): good antibacterial activity; sensitivity [1]: low sensitivity or resistance; antibacterial activity (Salmonella): relatively good activity; sensitivity [2]: high sensitivity; sensitivity [3]: high sensitivity; appearance of solution [4]: clear and colorless; solubility (solubility in solvents; in ethanol): very low; solubility (solubility in solvents; in water): high; stability towards β-lactamase [5]: more stable; antibacterial activity (Escherichia coli): relatively good activity
